Measurements reported in patent US11458094B2, “Compositions and methods for treating pulmonary edema or lung inflammation” (priority 2018, dated 2022).

Tests used:
[1] = system: hyperoxia-induced lung injury; assay: Hyperoxia-induced lung injury in rats: lung histology and MPO immunostaining; assay type: in vivo, Sprague Dawley rats
Protocol: FIG. 17. […] Immunostaining was performed with primary: anti-MPO antibody. Black dots represent MPO-positive cells.
FIG. 18. […] (A) Control: room air; (B) Hyperoxia; (C) Hyperoxia+T3.
(§1) All experimental protocols for animal treatments were approved by the University of Minnesota Institutional Animal Care and Use Committee. […] The room-air control rats were kept in the University animal housing facility. At the end of hyperoxic exposure, rats were sacrificed by intraperitoneal pentobarbital injection, and the lungs were harvested; the right lobes were allocated for histopathology, measurement of lung tissue myeloperoxidase (MPO) activity and wet-to-dry weight ratio. The left lobes underwent bronchoalveolar lavage (BAL) to determine BAL protein concentrations and differential cell counts.
Lung tissue was removed and inflation fixed at 20 cm water pressure in 4% paraformaldehyde, paraffin embedded, cut as 5 micron sections and mounted onto poly-L-lysine slides. Sections were deparaffinized in xylene, rehydrated through a graded alcohol series in methanol, and placed in a 98° C. water bath for 30 minutes in citrate buffer (pH 6.0) for antigen retrieval. After quenching with 0.3% hydrogen peroxide in PBS, sections were incubated in normal serum for 30 minutes and for 15 minutes each with Avidin/Biotin Blocking Kit (Vector Laboratories, Inc., Burlingame, Calif.). […]

[2] = Toxicity phase: intratracheal instillation once daily for five consecutive days (GLP safety study); assay type: in vivo, Sprague-Dawley rats
Protocol: Safety studies are described in Example 3, below. In a safety study conducted in compliance with Good Laboratory Practices (GLPs), 0.3 mL (300 μl) was administered to rats weighing 250-350 grams via intratracheal instillation daily for five consecutive days. […] The calculated dose based on lung weight was about 1.57 μg/g wet lung weight.
This study was conducted using both male and female Sprague-Dawley rats (Envigo, Huntingdon, United Kingdom). Evaluation of the safety of the tracheal route of instillation for liothyronine sodium injection in human clinical trials can be accomplished in this species at appropriate dose levels. Furthermore, responses to thyroid hormone in rats are similar to responses in humans, and the choice of the rat model is based in large part on pharmacologic data from studies of thyroid hormone and associated receptors and physiological responses in rat lung. The University of Minnesota is accredited by the Association for the Assessment and Accreditation of Laboratory Animal Care, International (AAALAC) and registered with the United States Department of Agriculture to conduct research in laboratory animals. Animal studies conformed to NIH guidelines (Guide for the Care and Use of Laboratory Animals. NIH publication No. 86-23. Revised 1985). The protocol was reviewed and approved, as applicable, by the Institutional Animal Care and Use Committee (IACUC) at the University of Minnesota for compliance with regulations prior to study initiation or implementation of amended activities.
Sixty animals (plus two spare animals/sex/group) were anesthetized and dosed via intratracheal instillation of test or control materials for five consecutive days. On the day after the last dose a terminal blood collection was performed for clinical pathology, after which animals were euthanized and a gross examination of all organs was performed by a board certified veterinary pathologist. Select tissues were collected for histopathology. […] Terminal blood collection was performed at two designated time points per animal up to 24 hours after administration for toxicokinetic evaluation. TK animals were euthanized without further evaluation after the final blood collection. All animals were acclimated for a minimum of seven days prior to the dosing procedure. Animals underwent baseline observations and examinations prior to the initiation of the study, and clinical observations and body weight monitoring were performed throughout the in-life portion of the study. All animals received the same dose volume (0.3 mL) of either test or control materials. This maximum feasible dose (MFD) is constrained by the maximum volume that can be safely and reproducibly (over five days) instilled into lungs of rats weighing 250 g to 350 g, which was determined in preliminary toxicology studies to be 0.3 mL. Actual doses delivered are reported as both μg/kg body weight and μg/gm wet lung weight. The toxicity phase animals were 72-135 days of age at the time of initial dosing. Males weighed between 256.52 g and 307.50 g with a mean±standard deviation of 286.74±11.77 g, and females weighed between 250.46 g and 299.01 g with a mean±standard deviation of 260.64±10.34 g. The TK phase animals were 68-144 days of age at the time of initial dosing. Males weighed between 261.23 g and 316.19 g; females weighed between 250.06 g and 280.32 g.
Test and control materials were drawn into dosing syringes using aseptic technique. Using a 18G needle, 0.5 mL of air was drawn into a 1 cc syringe followed by 0.3 mL (300 μL) of the solutions. Animals were anesthetized with a combination of ketamine, 40 mg/kg to 200 mg/kg, and xylazine, 1 mg/kg to 7 mg/kg intraperitoneally (IP), to effect. The dose was adjusted daily, as needed, based on individual animal response and recovery. Depth of anesthesia was evaluated by toe pinch, and eye lubricant was applied to the eyes. […]

[3] = system: Akt; assay: Akt phosphorylation (Ser473) in RLE-6TN cells under hyperoxia; assay type: cell-based, rat; conditions: hyperoxia 24 hours, T3 added for 20 minutes, vs room air control and hyperoxia alone
Protocol: (§2) The cells were lysed in lysis buffer containing 20 mM Tris·HCl (pH 7.5), 150 mM NaCl, 1 mM EDTA, 1 mM EGTA, 1% (vol/vol) Triton X-100 with protease inhibitors (1 mM PMSF, 2 μg/ml pepstatin, and 10 μg/ml each of aprotinin and leupeptin), and phosphatase inhibitors (2.5 mM sodium pyrophosphate, 1 mM β-glycerophosphate, and 1 mM Na3VO4). The lysate was drawn 10 times through a 25-gauge needle on ice for further lysis and then was centrifuged at 13,000 rpm for 15 minutes at 4° C. The supernatant was collected, and the protein concentrations were determined by use of the BCA protein assay kit (Sigma-Aldrich, St. Louis, Mo.). Immediately after this step, equal amounts of protein were subjected to Western blotting analysis.

[4] = system: Nrf2; assay: Western blot of Nrf2 (total cellular and nuclear) in RLE-6TN cells under hyperoxia; assay type: cell-based, rat; conditions: 24 hours hyperoxia, T3 10^−6 M
Text: FIG. 9. […] The cells were then collected for Western Blotting analysis. (A) Cellular total protein of Nrf2. (B) Nuclear Nrf2.
FIG. 12. T3-induced increase in Nrf2 and HO-1 protein via PI3K in hyperoxia. (A) Western Blot and densitometry data for total Nrf2. (B) Western Blot and densitometry data for cytoplasmic Nrf2. (C) Western Blot and densitometry data for nuclear Nrf2.
Nuclei were extracted with NE-PER nuclear and cytoplasmic extraction reagents kit (Thermo Fisher Scientific, Inc., Waltham, Mass.) following the manufacturer's instruction.
as §2

[5] = Preliminary dose-finding studies, 3.0 μg neutral pH T3 intravenous vs intratracheal; assay type: in vivo, rats
[6] = system: HO-1; assay: Western blot of HO-1 in RLE-6TN cells under hyperoxia; assay type: cell-based, rat; conditions: T3 10^−6M
Protocol: (§3) FIG. 10. HO-1 Upregulation is required for T3-increased RLE-6TN cell survival in hyperoxia. […] The cells were then collected for Western Blot analysis. (B) The cells were incubated in 21% O2 and 5% CO2 for 72 hours in the present of HO-1 inhibitor Tin Protoporphyrin IX(10^-6M) tinT3 (10^−6M). […] Cell viability is assessed with trypan blue. The number of viable cells under specific conditions is presented as a percentage of the cell number related to hyperoxia alone. Data are mean±s.d. of three independent experiments with *=P<0.05; **=P<0.01.
as §2

[7] = system: hyperoxia-induced lung injury; assay: Hyperoxia-induced lung injury in rats: bronchoalveolar lavage protein and cell number; assay type: in vivo, Sprague Dawley rats; conditions: ip T3
Text: as §1
Bronchoalveolar lavage (BAL) of the left lung was performed using a modification of a method previously described (Pace et al., Exp Lung Res 35:380-398, 2009). Briefly, 4 mls of ice-chilled 1× PBS (pH 7.4) were instilled into the left lung, withdrawn, and re-instilled two subsequent times prior to analysis of the lavage fluid. The retrieved BAL fluid was centrifuged at 1500 rpm for 10 minutes to remove cells and debris. The cell pellet was resuspended in 1 ml of 1× PBS (pH 7.4) and total cell number was counted using a hemocytometer. BAL cytospin preparations were stained using the Hema3 stain kit (Thermo Fisher Scientific, Inc., Waltham, Mass.) to identify the nucleated cells. The protein concentration was determined on the supernatants of BAL fluid using a standard BCA assay (Sigma-Aldrich, St. Louis, Mo.).

[8] = system: rat lung mucosa and airspaces; conditions: in vivo
Protocol: (§4) Therefore, the liothyronine sodium and the vehicle were adjusted to neutral pH (6.0-8.0) with sterile 1.0 N HCl (Sigma-Aldrich, St. Louis, Mo.) added aseptically in a biosafety cabinet prior to intratracheal instillation into animals. Using aseptic technique, vials of liothyronine sodium were opened and the entire contents were transferred into sterile 1.5 mL Eppendorf tubes. 80-90 μL of 1.0 N HCl was added to the tube and gently vortexed, and the pH was measured using pH test strips (pH 4.5 to 10.0, Ricca Chemical Co., Arlington, Tex.). Additional HCl was titrated in gradually, as needed, until the pH was in the desired range. […] This solution was stored at 4° C. and used for up to 26 hours after pH adjustment procedure. […] The vehicle was also adjusted to neutral pH (6.0-8.0) with 1.0 N HCl as described above. Using aseptic technique the vehicle was filter sterilized and aliquoted into 21 sterile disposable tubes (5 mL each) and stored at 4° C., and a new tube was opened for each day of use. Normal Saline (0.9% Sodium Chloride Injection USP, B. Braun Medical, Inc., Bethlehem, Pa.), was stored at room temperature. A new package was opened for each day of use.

[9] = single oral dose of 50 micrograms; cited from earlier work
[10] = system: rat lung mucosa and airspaces; assay: Preliminary studies: intratracheal instillation of liothyronine sodium without pH adjustment; conditions: rats, pH of >10.0 as supplied commercially
Protocol: as §4

[11] = system: myeloperoxidase (MPO) activity in lung tissue; assay: Hyperoxia-induced lung injury in rats: lung myeloperoxidase (MPO) assay; assay type: in vivo, Sprague Dawley rats; conditions: 60 hours hyperoxia, ip T3
Text: as §1
To quantify the neutrophil activity in the lung, MPO activity was assayed as previously described (Abraham et al., J Immunol 165:2950-2954, 2000). Lung tissues without prior lavage were frozen in liquid nitrogen, weighed, and stored at −86° C. The lungs were homogenized for 30 seconds in 1.5 ml 20 mM potassium phosphate, pH 7.4, and centrifuged at 4° C. for 30 minutes at 40,000×g. The pellet was resuspended in 1.5 ml 50 mM potassium phosphate, pH 6.0, containing 0.5% hexadecyltrimethylammonium bromide, sonicated for 90 seconds, incubated at 60° C. for two hours, and centrifuged at 14,000 rpm for 30 minutes at 4° C. The supernatant was assayed for peroxidase activity corrected to lung weight. MPO was expressed as activity per gram of lung tissue.

[12] = system: RLE-6TN cells; assay: RLE-6TN cell survival and recovery under hyperoxia, viable cells by trypan blue exclusion; assay type: cell-based, rat
Protocol: FIG. 7. […] The cells were cultured in DMEM/F12 with 10% FBS in 21% O2 and 5% CO2 overnight. […] The viable cells are counted immediately after 72-hour hyperoxia exposure. Cell viability is assessed with trypan blue. The amount of viable cells under specific conditions is presented as a percentage of the cell number from hyperoxia alone. Data are mean±s.d. of four independent experiments with *=P<0.05; **=P<0.01.
FIG. 8. […] In both (A) and (B), the number of viable cells under specific conditions is presented as a percentage of the cell number related to hyperoxia alone in the same experiment. Data are mean±s.d. of four independent experiments with *=P<0.05; **=P<0.01.
as §3
FIG. 11. PI3K inhibitor wortmannin blocked T3-induced cell survival in hyperoxia. […] Cell viability is assessed with trypan blue. The number of viable cells under specific conditions is presented as a percentage of the cell number related to hyperoxia alone. Data are mean±s.d. of four independent experiments with *=P<0.05; **=P<0.01.
At the end of the hyperoxia exposure period, the viable cells were counted by trypan blue dye exclusion.

N[C@@H](Cc1cc(I)c(Oc2ccc(O)c(I)c2)c(I)c1)C(=O)O [T3, triiodothyronine]
MPO-positive cells in the lungs vs hyperoxia without T3 ([1]; 95% oxygen 60 hours, T3-injected): fewer MPO-positive cells
lung morphology (histopathology) ([1]; 60 hours hyperoxia, systemic T3 supplementation): virtually normal lung morphology
body weight at terminal euthanasia vs pre-dose ([2]; T3 females, toxicity phase): weighed slightly less than their pre-dose weight
animals that died after dose administration ([2]; T3 test group, toxicity phase, judged not test article related): two
clinical observations ([2]; during the course of the study): No adverse T3 related clinical observations
regain of body weight ([2]; female rats, toxicity phase, vs males or control groups): did not regain body weight at the same rate
hematology parameters ([2]; male rats): no statistical or clinically significant changes
treatment-related macroscopic or microscopic findings in end organs ([2]; toxicity phase rats): no macroscopic or microscopic findings
organ weight of the lungs ([2]; toxicity phase rats, five days intratracheal): no differences
phosphorylation of Akt at Ser473 [3]: augmented
nuclear Nrf-2 protein expression [4]: significantly increased
total cellular Nrf-2 protein expression [4]: significantly increased
acute effects on physiologic parameters (respiratory rate, O2 saturation, heart rate) ([5]; five days of intratracheal delivery of 3.0 μg neutral pH T3): no acute effects
acute effects on physiologic parameters (respiratory rate, O2 saturation, heart rate) ([5]; single intravenous delivery of 3.0 μg neutral pH T3): no acute effects
total cellular protein of HO-1 [6]: significantly enhanced
hyperoxic increase in BALF protein concentration ([7]; 48 hour hyperoxia): attenuated significantly
BALF cell numbers vs hyperoxia alone ([7]; 48 hours hyperoxia): significantly reduced
hyperoxic increase in BALF protein concentration ([7]; 60 hour hyperoxia): attenuated significantly
BALF cell numbers vs hyperoxia alone ([7]; 60 hours hyperoxia): significantly reduced
toxicity to rat lung mucosa and airspaces [8]: extremely toxic
mean half-life [9]: 22.5 h
tolerance of intratracheal instillation [10]: do not tolerate
hyperoxia-induced lung MPO activity [11]: significantly reduced

C=Cc1c2[n-]c(c1C)/C=c1\[n-]/c(c(C)c1C=C)=C\c1[n-]c(c(CCC(=O)O)c1C)C=c1[n-]/c(c(C)c1CCC(=O)O)=C\2.[Sn+4] [Tin protoporphyrin, Tin Protoporphyrin IX]
AT2 cell number in room air ([12]; 21% O2 72 hours, 10^-6M): no effect
effect on T3-caused increase in cell survival in hyperoxia ([12]; 90% O2 72 hours, with T3 10^−6M, inhibitor 10^-6M): blocked

NC(Cc1ccc(Oc2cc(I)c(O)c(I)c2)c(I)c1)C(=O)O (centres unmarked) [rT3]
cell survival under hyperoxia ([12]; 90% oxygen 72 hours, 10^−6M): no role in cell survival
